Assay results as given in PMC11603275, “Synthesis and Antimicrobial Evaluation of New 1,2,4-Triazolo[1,5-a]pyrimidine-Based Derivatives as Dual Inhibitors of Bacterial DNA Gyrase and DHFR” (ACS Omega, 2024).
Converted amounts (≈) assume the structure as drawn. Where two headings read alike, the source gives them in different places.

How the values were obtained:
[1] = system: B. subtilis; experiment: Minimum bactericidal concentration (MBC) assay; format: cell-based, Bacillus subtilis
Description: (§1) The MBC differs from the MIC. […] Unlike the MBC, which leads to mortality, the MIC hinders bacterial growth without causing death.[41] The common expression for MBC is MBC50, signifying the antibiotic concentration that eliminates 50% of the initial bacterial population.[42]

[2] = system: S. aureus; experiment: MIC assay, 2-fold serial dilution in 96-well microtiter plate; format: cell-based, Staphylococcus aureus (ATCC 12600)
Method: (§2) The outcomes of this in vitro assay test align with the results of the antimicrobial sensitivity test.
(§3) Appendix A (Supplementary File) provides experimental details.
(§4) In 96-well microtiter plates and […] of fresh bacterial culture of a single McFarland unit overnight, a double serial dilution of each compound […] in sterile standard saline were prepared to every single source well. […] The plates were incubated at 37 °C overnight. As an indicator of bacterial growth, […] of p-iodonitrotetrazolium violet (INT) was added to each well and incubated at 37 °C for 30 min. […] The colorless tetrazolidium salt acts as an electron accepter and is reduced to a red colored formazan product by biological activity organisms. Where bacterial growth was inhibited, the solution in the well remained clear after incubation with INT.

[3] = system: P. aeruginosa; experiment: Modified disk diffusion, inhibition zone; details: P. aeruginosa (G-)
[4] = system: E. coli; experiment: Minimum bactericidal concentration (MBC) assay; format: cell-based, Escherichia coli
Description: as §1

[5] = system: C. albicans; experiment: Modified disk diffusion, inhibition zone; details: C. albicans (fungi)
[6] = system: P. aeruginosa; experiment: MIC assay, 2-fold serial dilution in 96-well microtiter plate; format: cell-based, Pseudomonas aeuroginosa (ATCC 10145)
Method: as §2, §3, §4

[7] = system: S. aureus; experiment: Modified disk diffusion, inhibition zone; details: S. aureus (G+)
[8] = system: C. albicans; experiment: Antifungal MIC assay, 2-fold serial dilution; format: cell-based, Candida albicans
[9] = system: S. aureus; experiment: Minimum bactericidal concentration (MBC) assay; format: cell-based, Staphylococcus aureus
Description: as §1

[10] = system: P. aeruginosa; experiment: Minimum bactericidal concentration (MBC) assay; format: cell-based, Pseudomonas aeuroginosa
Description: as §1

[11] = system: A. flavus; experiment: Antifungal MIC assay, 2-fold serial dilution; format: cell-based, Aspergillus flavus
[12] = system: E. coli; experiment: Modified disk diffusion, inhibition zone; details: E. coli (G-)
[13] = system: A. flavus; experiment: Modified disk diffusion, inhibition zone; details: A. flavus (fungi)
[14] = system: E. coli; experiment: MIC assay, 2-fold serial dilution in 96-well microtiter plate; format: cell-based, Escherichia coli (ATCC 11775)
Method: as §2, §3, §4

[15] = system: B. subtilis; experiment: Modified disk diffusion, inhibition zone; details: B. subtilis (G+)
[16] = target: T1, DHFR E. coli (Escherichia coli, UniProt P0ABQ4); experiment: DHFR inhibitory assay; format: biochemical
T1 construct: purchased Inspiralis
T1 sequence (P0ABQ4 whole entry): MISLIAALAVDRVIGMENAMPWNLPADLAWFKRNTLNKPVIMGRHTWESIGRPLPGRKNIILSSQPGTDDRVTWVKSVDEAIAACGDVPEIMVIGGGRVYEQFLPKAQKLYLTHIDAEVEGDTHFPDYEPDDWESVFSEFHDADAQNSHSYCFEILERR
Method: (§5) IC50 values were determined using seven different inhibitor concentrations and then calculated using the GraphPad Prism 6.0 software.

[17] = target: T2, E. coli DNA gyrase (Escherichia coli, UniProt P0AES6); experiment: DNA gyrase inhibitory (supercoiling) assay; format: biochemical
T2 construct: purchased Inspiralis
Method: as §5
All the final compounds were tested for E. coli DNA gyrase inhibitory activity in a supercoiling assay. Activities were determined on streptavidin-coated 96-well microtiter plates from Thermo scientific Pierce. […] After washing off the unbound oligonucleotide, the enzyme test was performed. […] After that, the TF buffer (50 mM NaOAc with pH 5.0, 50 mM NaCl and 50 mM MgCl2) was added to terminate the enzymatic reaction. After additional incubation for 30 min at rt, during which biotin-oligonucleotide-plasmid triplex was formed, the unbound plasmid was washed off using TF buffer and SybrGOLD in T10 buffer (10 mM Tris HCl with pH 8.0 and 1 mM EDTA) was added. […] Initial screening was done at 100 or 10 μM concentration of inhibitors. […] GraphPad Prism software was used to calculate the IC50 values. The result is given as the average value of three independent measurements.

[18] = system: B. subtilis; experiment: MIC assay, 2-fold serial dilution in 96-well microtiter plate; format: cell-based, Bacillus subtilis (ATCC 6051)
Method: as §2, §3, §4

[19] = target: DNA gyrase; set-up: method as in PMID 31711767; details: cited from earlier work
[20] = system: A. flavus and C. albicans; experiment: Disk diffusion, inhibition zones summarised over the fungal species; details: against A. flavus and C. albicans
[21] = system: tested fungal species; experiment: MIC summarised over the tested fungal species (abstract); format: cell-based; details: range over tested fungal species
[22] = system: Gram-positive and Gram-negative bacterial strains; set-up: method as in ref 29 = [29]; Ghaly M. A.; El-Bendary E. R.; Shehata I. A.; Bayomi S. M.; Habib E. Synthesis, antimicrobial activity, DNA-binding affinity and molecular docking of certain 1, 2, 4-triazolo [1, 5-a] pyrimidines; details: cited from earlier work
[23] = target: DNA, Gram-positive strains; set-up: method as in ref 29 = [29]; Ghaly M. A.; El-Bendary E. R.; Shehata I. A.; Bayomi S. M.; Habib E. Synthesis, antimicrobial activity, DNA-binding affinity and molecular docking of certain 1, 2, 4-triazolo [1, 5-a] pyrimidines; details: cited from earlier work
[24] = target: DNA, Gram-negative strains; set-up: method as in ref 29 = [29]; Ghaly M. A.; El-Bendary E. R.; Shehata I. A.; Bayomi S. M.; Habib E. Synthesis, antimicrobial activity, DNA-binding affinity and molecular docking of certain 1, 2, 4-triazolo [1, 5-a] pyrimidines; details: cited from earlier work
[25] = system: Gram-positive and Gram-negative bacteria (B. subtilis, S. aureus, E. coli, P. aeruginosa); experiment: Disk diffusion, inhibition zones summarised over the tested bacterial strains; details: over the four tested bacterial strains
[26] = Bacillus subtilis, read-out: MBC
[27] = Staphylococcus aureus, read-out: MIC
[28] = Escherichia coli, read-out: MBC
[29] = Pseudomonas aeruginosa, read-out: MIC
[30] = Candida albicans, read-out: MIC
[31] = Staphylococcus aureus, read-out: MBC
[32] = Pseudomonas aeruginosa, read-out: MBC
[33] = Aspergillus flavus, read-out: MIC
[34] = Escherichia coli, read-out: MIC
[35] = Bacillus subtilis, read-out: MIC

Structure (SMILES): COc1ccc(-c2cc(-c3ccccc3)nc3nc(-c4ccccc4)nn23)cc1 [Compound 9d, 7-(4-Methoxyphenyl)-2,5-diphenyl-1,2,4-triazolo[1,5-a]pyrimidine]
- MBC [1, 26]: 0.064 ± 0.003 µM (≈ 0.0242 µg/mL)
- MIC [2, 27]: 0.039 ± 0.002 µM (≈ 0.0148 µg/mL)
- Inhibition Zone (IZ) Diameter [3]: 34 mm/mL
- MBC [4, 28]: 0.102 ± 0.007 µM (≈ 0.0386 µg/mL)
- Inhibition Zone (IZ) Diameter [5]: 30 mm
- MIC [6, 29]: 0.075 ± 0.005 µM (≈ 0.0284 µg/mL)
- Inhibition Zone (IZ) Diameter [7]: 35
- MIC [8, 30]: 26.3 ± 1 µM (≈ 9.95 µg/mL)
- MBC [9, 31]: 0.071 ± 0.004 µM (≈ 0.0269 µg/mL)
- MBC [10, 32]: 0.109 ± 0.007 µM (≈ 0.0412 µg/mL)
- MIC [11, 33]: 21.5 ± 1 µM (≈ 8.14 µg/mL)
- Inhibition Zone (IZ) Diameter [12]: 33 mm/mL
- Inhibition Zone (IZ) Diameter [13]: 27 mm/mL
- MIC [14, 34]: 0.073 ± 0.005 µM (≈ 0.0276 µg/mL)
- Inhibition Zone (IZ) Diameter [15]: 35 mm/mL
- IC50 [16]: 5900 ± 200 nM
- IC50 [17]: 217 ± 13 nM
- MIC [18, 35]: 0.038 ± 0.002 µM (≈ 0.0144 µg/mL)

Structure (SMILES): O=C(NNC(=O)c1c[nH]c2ncnn2c1=O)c1ccccc1 [Compound IV]
- IC50 [19]: 680 nM

Structure (SMILES): OC(Cn1cncn1)(Cn1cncn1)c1ccc(F)cc1F [Fluconazole, reference compound]
- MIC [8]: 17.50 ± 1 µM (≈ 5.36 µg/mL)
- MIC [8, 30]: 17.5 µM (≈ 5.36 µg/mL)
- MIC [11]: 11.50 ± 1 µM (≈ 3.52 µg/mL)
- MIC [11, 33]: 11.5 µM (≈ 3.52 µg/mL)
- Inhibition Zone (IZ) Diameter [13]: 40 mm/mL
- Inhibition Zone (IZ) Diameter [20]: 40 mm
- MIC [21]: 11.5 to 17.5 µM (≈ 3.52 to 5.36 µg/mL)

Structure (SMILES): NNC(=O)c1c[nH]c2nc(N3CCCC3)nn2c1=O [IIIb]
- MIC [22]: ≥ 2 µg/mL
- IC50, DNA displacement experiment [23]: 61 µg/mL (≈ 232 µM)
- IC50, DNA displacement experiment [24]: 40 µg/mL (≈ 152 µM)

Structure (SMILES): COc1ccc(-c2cc(-c3ccc(C)cc3)n3nc(-c4ccccc4)nc3n2)cc1 [Compound 9o, 5-(4-Methoxyphenyl)-2-phenyl-7-p-tolyl-1,2,4-triazolo[1,5-a]pyrimidine]
- MBC [1]: 0.032 ± 0.002 µM (≈ 0.0126 µg/mL)
- folds less potent than ciprofloxacin as a bactericidal agent (MBC) [1]: 1.7
- MBC [1, 26]: 0.032 µM (≈ 0.0126 µg/mL)
- MIC [2]: 0.024 ± 0.001 µM (≈ 0.00942 µg/mL)
- MIC [2, 27]: 0.024 µM (≈ 0.00942 µg/mL)
- Inhibition Zone (IZ) Diameter [3]: 42 mm/mL
- MBC [4]: 0.087 ± 0.006 µM (≈ 0.0341 µg/mL)
- MBC [4, 28]: 0.087 µM (≈ 0.0341 µg/mL)
- Inhibition Zone (IZ) Diameter [5]: 38 mm
- MIC [6]: 0.053 ± 0.004 µM (≈ 0.0208 µg/mL)
- MIC [6, 29]: 0.053 µM (≈ 0.0208 µg/mL)
- Inhibition Zone (IZ) Diameter [7]: 45
- MIC [8]: 19.50 ± 1 µM (≈ 7.65 µg/mL)
- MIC [8, 30]: 19.5 µM (≈ 7.65 µg/mL)
- MBC [9]: 0.046 ± 0.002 µM (≈ 0.0181 µg/mL)
- MBC [9, 31]: 0.046 µM (≈ 0.0181 µg/mL)
- MBC [10]: 0.084 ± 0.005 µM (≈ 0.033 µg/mL)
- MBC [10, 32]: 0.084 µM (≈ 0.033 µg/mL)
- MIC [11]: 15.50 ± 1 µM (≈ 6.08 µg/mL)
- MIC [11, 33]: 15.5 µM (≈ 6.08 µg/mL)
- Inhibition Zone (IZ) Diameter [12]: 43 mm/mL
- Inhibition Zone (IZ) Diameter [13]: 35 mm/mL
- MIC [14]: 0.051 ± 0.003 µM (≈ 0.02 µg/mL)
- MIC [14, 34]: 0.051 µM (≈ 0.02 µg/mL)
- Inhibition Zone (IZ) Diameter [15]: 43 mm/mL
- Inhibition Zone (IZ) Diameter [25]: 42–45 mm
- IC50 [16]: 3900 ± 100 nM
- IC50 [17]: 182 ± 10 nM
- MIC [18]: 0.016 ± 0.001 µM (≈ 0.00628 µg/mL)
- times less effective than ciprofloxacin (MIC) [18]: 1.6
- MIC [18, 35]: 0.016 µM (≈ 0.00628 µg/mL)
